Where only a bound is given, the exact number is not on record here.

Sequence of BACE (P56817 46-501): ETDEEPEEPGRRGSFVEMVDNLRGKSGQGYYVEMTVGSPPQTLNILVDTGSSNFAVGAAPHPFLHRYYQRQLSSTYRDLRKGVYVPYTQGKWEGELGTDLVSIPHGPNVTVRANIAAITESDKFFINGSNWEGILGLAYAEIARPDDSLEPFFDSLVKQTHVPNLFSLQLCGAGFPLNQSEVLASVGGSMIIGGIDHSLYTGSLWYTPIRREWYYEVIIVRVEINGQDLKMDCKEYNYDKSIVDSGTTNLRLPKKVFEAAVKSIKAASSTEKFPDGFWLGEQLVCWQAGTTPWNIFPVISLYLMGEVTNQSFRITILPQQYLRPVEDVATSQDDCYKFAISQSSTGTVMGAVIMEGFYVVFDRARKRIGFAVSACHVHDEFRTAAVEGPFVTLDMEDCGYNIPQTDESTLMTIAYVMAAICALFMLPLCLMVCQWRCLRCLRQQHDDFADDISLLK

The target in the test is BACE (Homo sapiens, UniProt P56817). Kind of test: Ki Determination for the Inhibition of BACE (FS-1 peptide fluorescence cleavage assay). The class given is biochemical. Particulars: apparent Ki; 50 nM BACE, 10 μM FS-1 substrate, 0.1M sodium acetate pH 4.5. On the procedure:
Compounds were tested against BACE activity using the following modifications of the method described in J. Ermolieff et al. (2000) Biochemistry 39(51):16263.
All compound evaluations were performed in 0.1M sodium acetate (buffer), pH, 4.5, 10 μM substrate (FS-1 peptide as described in the reference above; this is commercially available), varying concentrations of the test compound or control (DMSO to yeild 2% vol/vol), and 50 nM BACE. The assay volume is 100 μL.
Two microliters of the test compound dissolved in DMSO are added to each well in a 96-well microtiter plate. Seventy eight microliters of BACE are mixed with buffer and added to each well then incubated at room temperature for 15 minutes. A stock solution of 50 μM FS-1 substrate was prepared by addition of an aliquot of FS-1 substrate which was dissolved in DMSO to the buffer and mixed well. The reaction is initiated by addition of 20 μL of the FS-1 mix to the remaining, preincubated assay components. The cleavage reaction of substrate to product is measured using a Molecular Devices fluorescence plate reader with the excitation and emission filter pairs of 355 nm and 495 nm, respectively. Apparent Ki values are determined by fitting the data to the integrated equation for competitive tight binding inhibition.
In the case of `O=C(Cc1cccc2ccccc12)Nc1cc(C(F)(F)F)ccc1N1CCNCC1` [Compound 134, 2-Naphthalen-1-yl-N-(2-piperazin-1-yl-5-trifluoromethyl-phenyl)-acetamide], the Ki was greater than 30 µM.
As for `O=C(Nc1cc(-c2cc(Cl)ccc2Cl)ccc1N1CCNCC1)c1cccc2ccccc12` [Compound 108, Naphthalene-1-carboxylic acid (2′,5′-dichloro-4-piperazin-1-yl-biphenyl-3-yl)-amide], the figure is less than 3 µM; as for `FC(F)(F)c1ccccc1OCc1ccc(COc2ccc(-c3ccccc3)cc2-c2ccccc2)c(C2=CCNCC2)c1` [Compound 326, 4-[2-([1,1′;3′,1′′]Terphenyl-4′-yloxymethyl)-5-(2-trifluoromethyl-phenoxymethyl)-phenyl]-1,2,3,6-tetrahydro-pyridine], 3 to 30 µM; as for `FC(F)(F)c1ccc(N2CCNCC2)c(NCc2ccc3ccccc3c2)c1` [Compound 100, Naphthalen-2-ylmethyl-(2-piperazin-1-yl-5-trifluoromethyl-phenyl)-amine], 3 to 30 µM.
As for `Cc1cc(N2CCNCC2)c(NC(=O)c2cccc3ccccc23)cc1-c1ccoc1` [Compound 154, Naphthalene-1-carboxylic acid (5-furan-3-yl-4-methyl-2-piperazin-1-yl-phenyl)-amide], the figure is greater than 30 µM; as for `C1=C(c2ccc(-c3ccccc3)cc2)C(COc2ccc3ccccc3c2)CNC1` (centres unmarked) [Compound 302, 4-Biphenyl-4-yl-3-(naphthalen-2-yloxymethyl)-1,2,3,6-tetrahydro-pyridine], less than 3 µM; as for `O=C(NCc1cccc2ccccc12)C1CNCCC1c1ccc(COc2ccccc2C(F)(F)F)cc1` (centres unmarked) [Compound 215, 4-[4-(2-Trifluoromethyl-phenoxymethyl)-phenyl]-piperidine-3-carboxylic acid (naphthalen-1-ylmethyl)-amide], 3 to 30 µM.
In the case of `CNCCN(C)c1ccc(-c2ccc(C(F)(F)F)cc2)cc1NCc1ccc2ccccc2c1` [Compound 226, N4-Methyl-N4-(2-methylamino-ethyl)-N3-naphthalen-2-ylmethyl-4′-trifluoromethyl-biphenyl-3,4-diamine] it was less than 3 µM; in that of `O=C1c2ccccc2C(=O)N1CC1CNCCC1c1ccc(COc2ccccc2C(F)(F)F)cc1` (centres unmarked) [Compound 212, 2-{4-[4-(2-Trifluoromethyl-phenoxymethyl)-phenyl]-piperidin-3-ylmethyl}-isoindole-1,3-dione], 3 to 30 µM; in that of `O=C(O)C1CN(c2ccc(-c3ccc(C(F)(F)F)cc3)cc2NCc2ccc3ccccc3c2)CCN1` (centres unmarked) [Compound 191, 4-{3-[(Naphthalen-2-ylmethyl)-amino]-4′-trifluoromethyl-biphenyl-4-yl}-piperazine-2-carboxylic acid], 3 to 30 µM.
Consider `FC(F)(F)c1cccc(-c2cc(COc3ccccc3C(F)(F)F)c(C3=CCNCC3)cc2COc2ccccc2C(F)(F)F)c1` [Compound 337, 4-[3′-Trifluoromethyl-2,5-bis-(2-trifluoromethyl-phenoxymethyl)-biphenyl-4-yl]-1,2,3,6-tetrahydro-pyridine], for which the Ki is 3 to 30 µM.
As for `O=C(O)c1cc2ccccc2cc1C(=O)NCC1CNCCC1c1ccc(COc2ccccc2C(F)(F)F)cc1` (centres unmarked) [Compound 213, 3-({4-[4-(2-Trifluoromethyl-phenoxymethyl)-phenyl]-piperidin-3-ylmethyl}-carbamoyl)-naphthalene-2-carboxylic acid], the figure is 3 to 30 µM.
In the case of `FC(F)Oc1ccc(COc2ccc3c(c2)c2c(n3Cc3ccc4ccccc4c3)CNCC2)cc1` [Compound 513, 6-(4-Difluoromethoxy-benzyloxy)-9-naphthalen-2-ylmethyl-2,3,4,9-tetrahydro-1H-b-carboline] it was less than 3 µM; in that of `O=C(c1cccc2ccccc12)n1c2c(c3cc(OCc4cccc(C(F)(F)F)c4)ccc31)CCNC2` [Compound 508, Naphthalen-1-yl-[6-(3-trifluoromethyl-benzyloxy)-1,2,3,4-tetrahydro-b-carbolin-9-yl]-methanone], less than 3 µM; in that of `O=C(OCc1cc(C2=CCNCC2)c(COc2ccccc2C(F)(F)F)cc1-c1ccoc1)c1cccnc1` [Compound 385, Nicotinic acid 2-furan-3-yl-5-(1,2,3,6-tetrahydro-pyridin-4-yl)-4-(2-trifluoromethyl-phenoxymethyl)-benzyl ester], less than 3 µM.
As for `CC(C)NS(=O)(=O)c1ccc(-c2ccc(N3CCNCC3)c(NC(=O)c3cccc4ccccc34)c2)cc1` [Compound 144, Naphthalene-1-carboxylic acid (4′-isopropylsulfamoyl-4-piperazin-1-yl-biphenyl-3-yl)-amide], the figure is 3 to 30 µM; as for `Cc1cccc(Oc2ccc(N3CCNCC3)c(NC(=O)c3cccc4ccccc34)c2)c1` [Compound 141, Naphthalene-1-carboxylic acid (2-piperazin-1-yl-5-m-tolyloxy-phenyl)-amide], 3 to 30 µM; as for `O=C(OCc1ccccc1-c1ccc(C2=CCNCC2)c(COc2ccccc2C(F)(F)F)c1)c1cccnc1Cl` [Compound 384, 2-Chloro-nicotinic acid 4′-(1,2,3,6-tetrahydro-pyridin-4-yl)-3′-(2-trifluoromethyl-phenoxymethyl)-biphenyl-2-ylmethyl ester], less than 3 µM.
On to `FC(F)(F)c1ccccc1OCc1cc(C2=CCNCC2)ccc1C1=CCNCC1` [Compound 371, 4-[4-(1,2,3,6-Tetrahydro-pyridin-4-yl)-2-(2-trifluoromethyl-phenoxymethyl)-phenyl]-1,2,5,6-tetrahydro-pyridine], for which the Ki fell in the range of 3 to 30 µM.
As for `Cc1ccc(Oc2ccc(N3CCNCC3)c(NC(=O)c3cccc4ccccc34)c2)cc1` [Compound 142, Naphthalene-1-carboxylic acid (2-piperazin-1-yl-5-p-tolyloxy-phenyl)-amide], the Ki fell in the range of 3 to 30 µM.
In the case of `FC(F)(F)c1ccccc1OCc1cc(-c2ccccc2C(F)(F)F)c(COc2ccccc2C(F)(F)F)cc1C1=CCNCC1` [Compound 336, 4-[2′-Trifluoromethyl-2,5-bis-(2-trifluoromethyl-phenoxymethyl)-biphenyl-4-yl]-1,2,3,6-tetrahydro-pyridine] it was less than 3 µM; in that of `O=C(NCc1ccco1)C1CNCCC1c1ccc(COc2ccccc2C(F)(F)F)cc1` (centres unmarked) [Compound 203, 4-[4-(2-Trifluoromethyl-phenoxymethyl)-phenyl]-piperidine-3-carboxylic acid (furan-2-ylmethyl)-amide], greater than 30 µM.
In the case of `O=C(Nc1cc(C(F)(F)F)c(Cl)cc1N1CCNCC1)c1cccc2ccccc12` [Compound 167, Naphthalene-1-carboxylic acid (4-chloro-2-piperazin-1-yl-5-trifluoromethyl-phenyl)-amide] it was greater than 30 µM; in that of `O=C(c1cccc2ccccc12)n1c2c(c3cc(OCc4ccccc4C(F)(F)F)ccc31)CCNC2` [Compound 504, Naphthalen-1-yl-[6-(2-trifluoromethyl-benzyloxy)-1,2,3,4-tetrahydro-b-carbolin-9-yl]-methanone], less than 3 µM.
As for `OCc1ccccc1-c1cc(COc2ccccc2C(F)(F)F)c(C2=CCNCC2)cc1COc1ccccc1C(F)(F)F` [Compound 367, [4′-(1,2,3,6-Tetrahydro-pyridin-4-yl)-2′,5′-bis-(2-trifluoromethyl-phenoxymethyl)-biphenyl-2-yl]-methanol], the figure is less than 3 µM; as for `Cc1ccccc1-c1ccc(C2=CCNCC2)c(COc2ccccc2C(F)(F)F)c1` [Compound 374, 4-[2′-Methyl-3-(2-trifluoromethyl-phenoxymethyl)-biphenyl-4-yl]-1,2,3,6-tetrahydro-pyridine], less than 3 µM.
With `O=C(Nc1ccc2ccccc2c1)c1ccc(COc2ccccc2C(F)(F)F)cc1C1=CCNCC1` [Compound 308, N-Naphthalen-2-yl-2-{1,2,3,6-tetrahydro-pyridin-4-yl)-4-(2-trifluoromethyl-phenoxymethyl)-benzamide], the Ki lay in the range of 3 to 30 µM.
As for `O=C(Nc1cc(-c2cccc(Cl)c2)ccc1N1CCNCC1)c1cccc2ccccc12` [Compound 123, Naphthalene-1-carboxylic acid (3′-chloro-4-piperazin-1-yl-biphenyl-3-yl)-amide], the figure is 3 to 30 µM.
In the case of `Cc1cccc(-c2ccc(N3CCNCC3)c(NC(=O)c3cccc4ccccc34)c2)c1` [Compound 126, Naphthalene-1-carboxylic acid (3′-methyl-4-piperazin-1-yl-biphenyl-3-yl)-amide] it was 3 to 30 µM.
Take `O=C(Nc1ccc(-c2ccc(C(F)(F)F)cc2)cc1N1CCNCC1)c1cccc2ccccc12` [Compound 174, Naphthalene-1-carboxylic acid (3-piperazin-1-yl-4′-trifluoromethyl-biphenyl-4-yl)-amide]: the Ki is less than 3 µM.
In the case of `O=C(Nc1cc(C(F)(F)F)c(-c2ccc(Cl)c(Cl)c2)cc1N1CCNCC1)c1cccc2ccccc12` [Compound 168, Naphthalene-1-carboxylic acid (3′,4′-dichloro-5-piperazin-1-yl-2-trifluoromethyl-biphenyl-4-yl)-amide] it was less than 3 µM.
As for `O=S(=O)(Nc1cc(-c2ccc(Cl)c(Cl)c2)ccc1N1CCNCC1)c1ccc(-c2ccc(C(F)(F)F)cc2)cc1` [Compound 179, 4′-Trifluoromethyl-biphenyl-4-sulfonic acid (3′,4′-dichloro-4-piperazin-1-yl-biphenyl-3-yl)-amide], the figure is 3 to 30 µM.
